Source: patent US20070197599A1, “HYDROXYLAMINES AND DERIVATIVES AS ANTI-ANGIOGENIC AGENTS” (priority 2006, published 2007)
Where two headings read alike, the source gives them in different places.

What was measured:
[1] = system: H2O2-induced angiogenesis in the CAM model; experiment: H2O2-induced angiogenesis in the chick chorioallantoic membrane (CAM) model; assay type: in vivo; details: for inhibition at 88 µM: Gallus gallus
Description: Neovascularization was examined by previously described methods (see references at the end of Example 5). Ten-day-old fertilized chicken eggs were incubated at 37° C. with 55% relative humidity. In the dark with the help of candling lamp and using a hypodermic needle a small hole was punctured in the shell covering the air sac. A second hole was punctured on the wider side of the egg above an avascular area of the embryonic membrane. An artificial air sac was created below the second hole by applying gentle vacuum to the first hole using a small rubber squeeze bulb. The vacuum caused the separation of chorioallantoic membrane (CAM) from the shell. An approximately 1.0 cm^2 widow was cut in the shell over the dropped CAM with the use of a mini drill. The underlying CAM was accessed through this small window.
Filter disks were punched using a small puncher from filter paper #1 (Whatman International, United Kingdom). Filter disks were soaked in 3 mg/ml cortisone acetate solution (95% ethanol and water) and air-dried under sterile condition. For inducing angiogenesis, sterile filter disks were saturated with bFGF (1 μg/ml) or other pro-angiogenesis factors and control disks were saturated with PBS without Calcium and Magnesium.
Using sterile forceps one filter/CAM was placed from the window. The window was sealed with Highland brand transparent tape. After 24 hr, 10-25 µl of test agent (inhibitor) was injected intravenously or added topically into the CAM membrane of bFGF or other pro-angiogenesis factors stimulated CAMs. • Control filter disks received PBS without Calcium and Magnesium. • After 48 hr, CAM tissue directly beneath filter disk was harvested and placed in a 35-mm Petri dish. Eight-Ten eggs/treatment group was used.
A pro-angiogenic agent (see Examples, below) was added to induce new blood vessel branches on the CAM of 10-day old embryos. Sterile disks of #1 filter paper (Whatman International, United Kingdom) were pre-treated with 3 mg/ml cortisone acetate, and air dried under sterile conditions. The disks were then suspended in PBS (Phosphate Buffered Saline) and placed on growing CAMs. Filters treated with TPH (TEMPOL-H) or TEMPOL and/or H2O2 or TPH and/or bFGF or VEGF were placed on the first day of the 3-day incubation.
Digital Images and Microscopic analysis of CAM sections: CAM sections from Petri dish were examined using SV6 stereomicroscope (Karl Zeiss) at 50× magnification. Digital images were captured using a 3-CCD color video camera system (Toshiba America, New York, N.Y.). These images were analyzed using Image-Pro Plus software (Media Cybernetics). The number of branch points in blood vessels within the circular region superimposed to the area of a filter disk was counted for each section. After incubation at 37° C. with 55% relative humidity for 3 days, the CAM tissue directly beneath each filter disk was resected from control and treated CAM samples. Tissues were washed three times with PBS. Sections were placed in a 35-mm Petri dish (Nalge Nunc; Rochester, N.Y.) and were examined under a SV6 stereomicroscope (Karl Zeiss; Thornwood, N.Y.) at 50× magnification. Digital images of CAM sections adjacent to filters were collected using a 3-CCD color video camera system (Toshiba America; New York, N.Y.) and analyzed with the Image-Pro Plus software (Media Cybernetics; Silver Spring, Md.). The number of vessel branch points contained in a circular region equal to the area of a filter disk was counted for each section. Percent inhibition data are expressed as the quotient of the experimental value minus the negative control value divided by the difference between the positive control value and the negative control value. One image was counted in each CAM preparation, and findings from eight CAM preparations were analyzed for each treatment condition. In addition, each experiment was performed three times. […]

mouse V79 cells = details: Mitchell et al., 2000; cited from earlier work
lens endothelial cells = details: in vitro; Sasaki et al., 1998; cited from earlier work
[2] = system: selenite induced cataract; details: mice; cited from earlier work

CC1(C)CC(O)CC(C)(C)N1[O] [TEMPOL, 4-hydroxy-2,2,6,6-tetramethylpiperidine-N-oxyl radical, reference compound]
inhibition of angiogenesis induced by super-maximal concentrations of H2O2 ([1]; CAM model, Tables 1A and 1B): effectively inhibited
inhibition at 88 µM ([1]; read-out: % Inhibition ± SD, H2O2 (88 μM, 30 ng) + 100 μg test agent): 32.1 ± 14.1%
inhibition at 88 µM ([1]; read-out: % Inhibition ± SD, H2O2 (88 μM, 30 ng) + 200 μg test agent): 32.5 ± 12.1%
inhibition at 88 µM ([1]; read-out: % Inhibition ± SD, H2O2 (88 μM, 30 ng) + 400 μg test agent): 30.1 ± 8.7%
inhibition at 88 µM ([1]; read-out: % Inhibition ± SD, H2O2 (88 μM, 30 ng) + 800 μg test agent): 60.9 ± 3.2%
radioprotection of mouse V79 cells (mouse V79 cells): concentration dependent
prevention of X-ray radiation damage to lens endothelial cells (lens endothelial cells): prevented X-ray radiation damage
prevention of selenite induced cataract [2]: not effective
